pIC50: −log10 of the molar value.
Test system: OVCAR-5 complex spheroids with HUVEC/MSC, viability, % test/control
Assay: Anticancer human tumor OVCAR-5 cell line growth inhibition [AhR];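 note: spheroids exposed to compounds for 7 days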;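 for viability, T/C: 100% = DMSO vehicle control wells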
Conditions: for pIC50: curve of first compound; for viability, T/C: stronger effect = lower value
Outline: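 Complex tumor spheroids co-cultured with HUVEC and human MSC stroma; AhR antagonists tested in combination with standard-of-care and investigational agents. Top concentration at or near clinical Cmax (else 10 microM), half-log dilutions; growth expressed as percent test/control.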

[1] = second compound 0.1 µM, first compound 0.00316 µM
[2] = second compound 0.1 µM, first compound 0.01 µM
[3] = second compound 0.1 µM, first compound 0.0316 µM
[4] = second compound 0.1 µM, first compound 0.1 µM
[5] = second compound 0.316 µM, first compound 0.00316 µM
[6] = second compound 0.316 µM, first compound 0.01 µM
[7] = second compound 0.316 µM, first compound 0.0316 µM
[8] = second compound 0.316 µM, first compound 0.1 µM
[9] = second compound 1 µM, first compound 0.00316 µM
[10] = second compound 1 µM, first compound 0.01 µM
[11] = second compound 1 µM, first compound 0.0316 µM
[12] = second compound 1 µM, first compound 0.1 µM
[13] = second compound 3.16 µM, first compound 0.00316 µM
[14] = second compound 3.16 µM, first compound 0.01 µM
[15] = second compound 3.16 µM, first compound 0.0316 µM
[16] = second compound 3.16 µM, first compound 0.1 µM
[17] = second compound 10 µM, first compound 0.00316 µM
[18] = second compound 10 µM, first compound 0.01 µM
[19] = second compound 10 µM, first compound 0.0316 µM
[20] = second compound 10 µM, first compound 0.1 µM
[21] = second compound 0.1 µM, first compound 0.316 µM
[22] = second compound 0.1 µM, first compound 1 µM
[23] = second compound 0.1 µM, first compound 3.16 µM
[24] = second compound 0.1 µM, first compound 10 µM
[25] = second compound 0.316 µM, first compound 0.316 µM
[26] = second compound 0.316 µM, first compound 1 µM
[27] = second compound 0.316 µM, first compound 3.16 µM
[28] = second compound 0.316 µM, first compound 10 µM
[29] = second compound 1 µM, first compound 0.316 µM
[30] = second compound 1 µM, first compound 1 µM
[31] = second compound 1 µM, first compound 3.16 µM
[32] = second compound 1 µM, first compound 10 µM
[33] = second compound 3.16 µM, first compound 0.316 µM
[34] = second compound 3.16 µM, first compound 1 µM
[35] = second compound 3.16 µM, first compound 3.16 µM
[36] = second compound 3.16 µM, first compound 10 µM
[37] = second compound 10 µM, first compound 0.316 µM
[38] = second compound 10 µM, first compound 1 µM
[39] = second compound 10 µM, first compound 3.16 µM
[40] = second compound 10 µM, first compound 10 µM

Row | SMILES | pIC50 (second compound 0.1 µM) | pIC50 (second compound 0.316 µM) | pIC50 (second compound 1 µM) | pIC50 (second compound 3.16 µM) | pIC50 (second compound 10 µM) | viability, T/C [3] | viability, T/C [4] | viability, T/C [7] | viability, T/C [8] | viability, T/C [11] | viability, T/C [12] | viability, T/C [15] | viability, T/C [16] | viability, T/C [19] | viability, T/C [20] | viability, T/C [21] | viability, T/C [22] | viability, T/C [25] | viability, T/C [26] | viability, T/C [29] | also measured
1 | CC[C@@]1(O)C(=O)OCc2c1cc1n(c2=O)Cc2cc3c(CN(C)C)c(O)ccc3nc2-1 + Cc1ccccc1N=Nc1ccc(NC(=O)c2ccnn2C)c(C)c1 | 7.64 | 7.61 | 7.60 | 7.56 | 7.55 | 34.7% | 42.4% | 36.5% | 42.7% | 38.7% | 42.4% | 41% | 47.4% | 40.9% | 50.4% | – | – | – | – | – | viability, T/C (second compound 0.1 µM, first compound 0.000316 µM): 103%; viability, T/C (second compound 0.1 µM, first compound 0.001 µM): 102%; viability, T/C [1]: 94%; viability, T/C [2]: 79.2%; viability, T/C (second compound 0.316 µM, first compound 0.000316 µM): 105%; viability, T/C (second compound 0.316 µM, first compound 0.001 µM): 103%; viability, T/C [5]: 96%; viability, T/C [6]: 84.6%; viability, T/C (second compound 1 µM, first compound 0.000316 µM): 112%; viability, T/C (second compound 1 µM, first compound 0.001 µM): 108%; viability, T/C [9]: 104%; viability, T/C [10]: 89.3%; viability, T/C (second compound 3.16 µM, first compound 0.000316 µM): 113%; viability, T/C (second compound 3.16 µM, first compound 0.001 µM): 110%; viability, T/C [13]: 108%; viability, T/C [14]: 92%; viability, T/C (second compound 10 µM, first compound 0.000316 µM): 100%; viability, T/C (second compound 10 µM, first compound 0.001 µM): 104%; viability, T/C [17]: 101%; viability, T/C [18]: 89%
2 | COc1cc(C2c3cc4c(cc3C(OC3OC5COC(C)OC5C(O)C3O)C3COC(=O)C23)OCO4)cc(OC)c1O (stereo not given) + Cc1ccccc1N=Nc1ccc(NC(=O)c2ccnn2C)c(C)c1 | 5.68 | 5.65 | 5.60 | 5.56 | 5.54 | 105% | 104% | 114% | 114% | 115% | 116% | 112% | 121% | 105% | 107% | 98.8% | 68.3% | 103% | 68.8% | 105% | viability, T/C [23]: 40.4%; viability, T/C [24]: 32.1%; viability, T/C [27]: 43.4%; viability, T/C [28]: 32.9%; viability, T/C [30]: 73.5%; viability, T/C [31]: 44.1%; viability, T/C [32]: 36.1%; viability, T/C [33]: 110%; viability, T/C [34]: 77.1%; viability, T/C [35]: 47.9%; viability, T/C [36]: 38.2%; viability, T/C [37]: 98%; viability, T/C [38]: 68.8%; viability, T/C [39]: 51.8%; viability, T/C [40]: 38.9%
3 | COc1cccc2c1C(=O)c1c(O)c3c(c(O)c1C2=O)CC(O)(C(=O)CO)CC3OC1CC(N)C(O)C(C)O1 (stereo not given) + Cc1ccccc1N=Nc1ccc(NC(=O)c2ccnn2C)c(C)c1 | 6.86 | 6.79 | 6.64 | 6.57 | 6.41 | 60.9% | 48.8% | 61.6% | 51.7% | 63.4% | 53.2% | 65.3% | 59.4% | 63.4% | 62.2% | 42.5% | 23.8% | 43.6% | 23.7% | 48% | viability, T/C [23]: 1.63%; viability, T/C [24]: 0.98%; viability, T/C [27]: 1.72%; viability, T/C [28]: 1.7%; viability, T/C [30]: 22.3%; viability, T/C [31]: 1.44%; viability, T/C [32]: 1%; viability, T/C [33]: 48%; viability, T/C [34]: 23%; viability, T/C [35]: 1.21%; viability, T/C [36]: 1.15%; viability, T/C [37]: 55%; viability, T/C [38]: 25.1%; viability, T/C [39]: 1.08%; viability, T/C [40]: 1.24%
4 | Nc1ccn(C2OC(CO)C(O)C2(F)F)c(=O)n1 (stereo not given) + Cc1ccccc1N=Nc1ccc(NC(=O)c2ccnn2C)c(C)c1 | > 7.50 | > 7.50 | > 7.50 | > 7.50 | > 7.50 | 27.7% | 25.4% | 27.5% | 25.3% | 29.7% | 27.1% | 28.9% | 27.2% | 31.6% | 29.2% | 26.3% | 27.4% | 26.4% | 26.9% | 26.7% | viability, T/C [23]: 28.5%; viability, T/C [24]: 28.1%; viability, T/C [27]: 29%; viability, T/C [28]: 29.1%; viability, T/C [30]: 27.1%; viability, T/C [31]: 28%; viability, T/C [32]: 27.9%; viability, T/C [33]: 27.1%; viability, T/C [34]: 28.2%; viability, T/C [35]: 29.3%; viability, T/C [36]: 29.2%; viability, T/C [37]: 31.9%; viability, T/C [38]: 31.1%; viability, T/C [39]: 32.2%; viability, T/C [40]: 31%
5 | Nc1ncn(C2CC(O)C(CO)O2)c(=O)n1 (stereo not given) + Cc1ccccc1N=Nc1ccc(NC(=O)c2ccnn2C)c(C)c1 | < 6.00 | < 6.00 | < 6.00 | < 6.00 | < 6.00 | 88.3% | 76.4% | 94.3% | 79.6% | 98.2% | 81.4% | 100% | 85.9% | 100% | 82.5% | 65% | 64.5% | 69.3% | 59.2% | 68.9% | viability, T/C [1]: 99%; viability, T/C [2]: 98.3%; viability, T/C [5]: 104%; viability, T/C [6]: 104%; viability, T/C [9]: 108%; viability, T/C [10]: 105%; viability, T/C [30]: 62%; viability, T/C [13]: 105%; viability, T/C [14]: 109%; viability, T/C [33]: 72%; viability, T/C [34]: 62.2%; viability, T/C [17]: 104%; viability, T/C [18]: 109%; viability, T/C [37]: 68.1%; viability, T/C [38]: 61.4%

Source: PubChem BioAssay AID1919015 (Molecular Pharmacology Branch, DTP, NCI, 2023)
